Results: US12559450B2, “Lipidoids for nucleic acid transfection and use thereof” (Ustav Organicke Chemie a Biochemie AV CR, v.v.i., priority 2020, dated 2026)

How the values were obtained:
U2OS = test: Cellular toxicity of mRNA-LNP, CellTiterGlo 2.0 viability; assay type: cell-based, human; details: total lipid 100 μM (context of the sentence)
Procedure: A human cell line derived from embryonic kidney cells (HEK293), the same line expressing SV40 large T antigen (HEK293T), human osteosarcoma-derived cell line (U2OS), and human hepatocyte carcinoma cell line (HepG2) were cultured in 96-well plates (5×10^4 cells in 100 μl of culture medium per well) in Dulbecco's modified medium (DMEM) or in IMDM medium (Iscove's Modified Dulbecco's medium) supplemented with 10% foetal bovine serum (FBS) at 37° C. in 5% CO2. Cells were transfected with 2 μl of mRNA-LNPs generated in triplicates in Example 25 (the final total concentration of all lipid components in the well was 20 μM) or 10 μl of mRNA-LNPs (the final total concentration of all lipid components in the well was 100 μM) and subsequently incubated for 24 hours. The cytotoxicity of LNPs was analysed in a CellTiterGlo 2.0 cell viability assay (Promega, USA). Cell viability was normalized to non-transfected cells (control).

STING protein = STING protein (Homo sapiens, UniProt Q86WV6, H232R); test: STING activation reporter assay (ISRE luciferase, HEK293T) with cGAMP-LNPs; details: read-out: EC50 STING activation; 2′,3′-cGAMP transfected with cGAMP-LNPs
Chain of STING protein (Q86WV6 whole entry H232R): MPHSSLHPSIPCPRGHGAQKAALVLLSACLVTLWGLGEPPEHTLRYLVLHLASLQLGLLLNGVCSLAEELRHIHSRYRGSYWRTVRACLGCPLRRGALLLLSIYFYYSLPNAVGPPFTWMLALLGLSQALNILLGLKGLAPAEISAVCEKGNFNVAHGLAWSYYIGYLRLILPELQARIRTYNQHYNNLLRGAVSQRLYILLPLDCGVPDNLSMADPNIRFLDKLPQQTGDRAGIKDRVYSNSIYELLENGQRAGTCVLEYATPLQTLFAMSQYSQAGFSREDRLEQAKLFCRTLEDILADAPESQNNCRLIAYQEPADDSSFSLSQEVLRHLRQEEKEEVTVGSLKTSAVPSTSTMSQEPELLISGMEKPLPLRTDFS
Procedure: Cells were transferred to poly-D-lysine (Sigma-Aldrich)-coated 96-well plates (Greiner Bio-One) at a density of 2.5×10^4 in DMEM medium containing glucose (containing L-glutamine; Biowest) supplemented with 10% FBS (Capricorn Scientific) and 1% penicillin-streptomycin (Biowest). After incubation at 37° C. in 5% CO2 overnight, serially diluted compounds were added to the cells for 7 hours. In parallel, HEK293T cells were incubated with the test compounds alone for 30 minutes, washed twice with fresh medium, and then cultured for an additional 6.5 hours. Finally, 50 μl of cell culture medium was mixed with 30 μl of Bright-Glo Luciferase Assay System reagent (Promega) in white 96-well plates and luminescence was read in a Spark® spectrophotometer (TECAN, Grodig).

EC50 (STING protein): 2 ± 0.36 nM
Compound: CCCCCCCCCCCCN(CCCCCCCCCCCC)CCCCCNC(=O)C12CC3CC(C(=O)NCCCCCN(CCCCCCCCCCCC)CCCCCCCCCCCC)(C1)CC(C(=O)NCCCCCN(CCCCCCCCCCCC)CCCCCCCCCCCC)(C3)C2 [4d]
toxicity of particles formed by the lipidoid (in words) (U2OS): non-toxic
